# Patent US10279053B2, “Microbubble compositions, method of making same, and method using same” (NuvOx Pharma LLC, priority 2011, dated 2019)
# How the values were obtained:
# [1] = Boiling point / liquid-gas phase transition temperature of core gases; type: physicochemical; conditions: interstitial pressure of 795 mm Hg; gas law approximation
# Source text: Applicant's gaseous precursors include, for example, fluorinated carbons, perfluorocarbons, sulfur hexafluoride, perfluoro ethers and combinations thereof. As the stilled artisan will appreciate, a particular fluorinated compound, such as sulfur hexafluoride, a perfluorocarbon or a perfluoro ether, may exist in the liquid state when the compositions are first made, and are thus used as a gaseous precursor. Whether the fluorinated compound is a liquid generally depends on its liquid/gas phase transition temperature, or boiling point. For example, a preferred perfluorocarbon, perfluoropentane, has a liquid/gas phase transition temperature (boiling point) of 29.5° C. This means that perfluoropentane is generally a liquid at room temperature (about 25° C.), but is converted to a gas within the human body, the normal temperature of which is about 37° C., which is above the transition temperature of perfluoropentane. Thus, under normal circumstances, perfluoropentane is a gaseous precursor. As known to one skilled in the art, the effective boiling point of a substance may be related to the pressure to which that substance is exposed. This relationship is exemplified by the ideal gas law: PV=nRT, where P is pressure, V is volume, n is moles of substance, R is the gas constant, and T is temperature. […] Conversely, as pressure decreases, the effective boiling point decreases. […]
# [2] = standard pressure of about 760 mm Hg; cited from earlier work
smiles,measurement,setting,value
FC(F)(F)C(F)(F)C(F)(F)C(F)(F)C(F)(F)F [Perfluoropentane],boiling point at interstitial pressure,[1],about 30.5 °C
same,liquid/gas phase transition temperature (boiling point),[2],29.5 °C
